# Data as given in patent US20220401414A1, “TREATMENT AND PREVENTION OF A NEURODEGENERATIVE DISORDER” (Inflazome Limited, priority 2019, published 2022).
# Assays:
# IL-1β = assay: Study H: IL-1β ELISA in plasma of PFF-Synuclein mice; type: in vivo, C57BL6 mice; settings: 0.3 mg/ml drinking water, 12 months after PFF-Synuclein injections
# From the text: To determine the oral efficacy of the compound of formula (I) in a chronic progressive model of Parkinson's disease (PD), the preformed fibrils (PFF) mouse model, using a prophylactic and therapeutic dosing schedule.
# 8-week-old C57BL6 male mice (obtained from ARC, Perth, Australia) were housed under a 12-h light cycle in a SPF climate-controlled facility with food and water provided ad libitum for two weeks prior to study initiation. The compound of formula (I) (or water alone for control animals) was administrated to mice in drinking water at 0.3 mg/ml. Animals were separated into the groups described in Table 9, with ten animals initiated in each cohort. […]
# Recombinant human a-synuclein was obtained from rPeptide Inc., and in vitro fibril generation was performed with a final concentration of 2 mg/ml in phosphate-buffered saline (PBS) by incubation at 37° C. with agitation in an orbital mixer (400 rpm) for 7 days with daily cycles of sonication used to break down fibrillar aggregates as outlined in previously published reports (see Luk et al., Science, 2012, vol. 338(6109), pp. 949-53; and Zhang et al., Methods Mol. Biol., 2019, vol. 1948, pp. 45-57, which are incorporated in their entirety herein by reference). The generation of fibrillar α-synuclein species was confirmed by transmission electron microscopy and Thioflavin T fluorescence prior to use. […]
# [1] = Study B: blood-brain barrier penetration, striatal MetaQuant microdialysis in unilateral 6-OHDA lesioned mice after oral dosing; type: in vivo, C57B1/6 mice; settings: 6-OHDA mice; for average peak levels in left and right striatal dialysate: MetaQuant dialysate, not corrected for recovery (recovery 61%); for time of average peak levels after compound administration: striatal dialysate
# Method: The present study was designed to assess the free concentration of the compound of formula (I) in the left and right striatum of freely-moving adult male mice with a unilateral 6-hydroxydopamine (6-OHDA) lesion.
# Adult male C57B1/6 mice (23-28 g; Envigo, the Netherlands) were used for the experiments. Following arrival, animals were housed in groups of 5 in polypropylene cages (40×50×20 cm) with wire mesh top in a temperature (22±2° C.) and humidity (55±15%) controlled environment on a 12 hour light cycle (07.00-19.00). Following surgery, animals were housed individually (cages 30×30×40 cm). Standard diet (SDS Diets, RM1 PL) and domestic quality mains water were available ad libitum.
# Mice were anesthetized using isoflurane (2% and 500 mL/min O2). Before surgery, Finadyne (1 mg/kg, s.c.) was administered for analgesia during surgery and the post-surgical recovery period. A mixture of bupivacaine and epinephrine was used for local analgesia of the incision site.
# The animals were placed in a stereotaxic frame (Kopf instruments, USA). 10 μg of 6-OHDA in 2 μL saline was slowly injected into the right striatum using a Hamilton needle (coordinates for the tip of the needle: AP=−0.5 mm (to bregma), ML=−2.0 mm (to midline), DV=-4.0 mm (to dura) with an angle of 0° and the incisor bar set at 0.0 mm.
# In the same surgical procedure, guides for MetaQuant microdialysis probes with a 3 mm exposed polyacrylonitrile membrane (MQ-PAN 3/3) were implanted bilaterally into the left and right striatum (coordinates for the tip of the probe: AP=+0.8 mm (to bregma), ML=+/−1.7 mm (to midline), DV=−4.0 mm (to dura) with an angle of 0° and the incisor bar set at 0.0 mm. All coordinates were based on “The mouse brain in stereotaxic coordinates” by Paxinos and Franklin (2008). The probes were attached to the skull with a stainless-steel screw and dental cement.
# The monosodium salt of the compound of formula (I) was formulated in sterilized tap water at concentrations of 0.2 and 4 mg/mL for oral dosing at 5 mL/kg; 1 mg/kg and 20 mg/kg, respectively.
# After recovery from lesion and the guide surgery, on day 10, MetaQuant microdialysis probes were connected with flexible PEEK tubing (Western Analytical Products Inc. USA; PK005-020) to a microperfusion pump (Harvard) and perfused with a slow flow of artificial CSF (perfusate), containing 147 mM NaCl, 3.0 mM KCl, 1.2 mM CaCl2, and 1.2 mM MgCl2, at a flow rate of 0.12 μL/min and a carrier flow of UP+0.02 M FA+0.04% ascorbic acid at 0.8 μL/min. After a minimum of two hours of prestabilisation, microdialysis samples were collected in 60 minute intervals. […]
# Levels of the compound of formula (I) in MetaQuant microdialysate samples were quantified by LC-MS/MS. […]
smiles,measurement,setting,value
CC(C)n1ccc(S(=O)(=O)NC(=O)Nc2c3c(cc4c2CCC4)CCC3)n1 [compound of formula (I)],circulating IL-1β in plasma compared with the PFF-Synuclein group,IL-1β; prophylactic treatment,significant decrease in circulating IL-1β
same,circulating IL-1β in plasma compared with the PFF-Synuclein group,IL-1β; therapeutic treatment,significant decrease in circulating IL-1β
same,average peak levels in left and right striatal dialysate,[1]; 1 mg/kg oral,17 to 19 nM
same,time of average peak levels after compound administration,[1]; 1 mg/kg oral,5 h
same,average peak levels in left and right striatal dialysate,[1]; 20 mg/kg oral,280 to 300 nM
same,time of average peak levels after compound administration,[1]; 20 mg/kg oral,6 h
